In patent US5776940A, “Phenylxanthine derivatives” (Glaxo Wellcome Inc., priority 1994, dated 1998):
Blank lines part the entries; values can stand above or below the molecule they belong to.

Legend:
[1] = target: T1, arachidonate 5-lipoxygenase (Rattus norvegicus, UniProt P12527); assay: Arachidonate metabolism: 5-lipoxygenase inhibition in rat pleural exudate cells; assay type: cell-based, rat (Harlan Sprague-Dawley male); details: ionophore A23187, 10 μM arachidonate, 37° C., read-out: Enzymes IC50 5-LO
T1 construct: endogenous in cells; host or cells: pleural exudate cells of male Harlan Sprague-Dawley rats, 3 hr after intrapleural carrageenan
T1 sequence (P12527 1-673): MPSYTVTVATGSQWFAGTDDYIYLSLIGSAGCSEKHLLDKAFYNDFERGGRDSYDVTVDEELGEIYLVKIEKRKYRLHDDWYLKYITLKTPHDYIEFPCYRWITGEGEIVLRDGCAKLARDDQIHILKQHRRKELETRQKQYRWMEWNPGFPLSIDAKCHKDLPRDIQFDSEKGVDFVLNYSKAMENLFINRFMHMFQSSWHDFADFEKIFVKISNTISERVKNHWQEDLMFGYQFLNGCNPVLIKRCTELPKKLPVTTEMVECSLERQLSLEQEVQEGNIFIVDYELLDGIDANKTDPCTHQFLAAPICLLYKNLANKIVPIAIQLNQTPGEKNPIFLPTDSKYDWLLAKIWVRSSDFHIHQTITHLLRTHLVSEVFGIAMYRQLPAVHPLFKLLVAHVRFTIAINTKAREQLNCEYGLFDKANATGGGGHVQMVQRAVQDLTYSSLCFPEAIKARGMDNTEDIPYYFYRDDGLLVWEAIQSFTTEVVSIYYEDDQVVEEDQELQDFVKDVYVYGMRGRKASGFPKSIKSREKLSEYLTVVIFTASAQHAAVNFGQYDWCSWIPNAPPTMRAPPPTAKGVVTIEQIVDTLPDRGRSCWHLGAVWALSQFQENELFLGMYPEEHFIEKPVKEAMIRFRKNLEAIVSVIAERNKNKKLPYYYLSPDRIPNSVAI
Description: (§1) Compounds of the invention were assayed for inhibiting activity in arachidonate metabolism and PAF synthesis as follows.
(§2) A) Arachidonate Metabolism
(§3) Arachidonate cyclooxygenase, 5-lipoxygenase, and thromboxane synthetase were assayed as described in White et al, Prostaglandins, Leukotrienes and Medicine, 1985; 20: p 1-9. Pleural exudate cells were harvested from Harlan Sprague-Dawley male rats (150±20 g) 3 hr after intrapleural injection of 0.5 mg carrageenan. Cell counts were obtained from pooled exudates, which were then centrifuged at 200 g (10 min, 4° C.) and resuspended at 15 million cells/ml in 0.13M NaCl, 15 mM Tris-Cl, 5 mM glucose, pH 7.4. Portions of this cell suspension (3 million cells per assay) were preincubated with and without compound being tested for 5 min at 37° C. in 50 mM Tris-Cl, 1 mM CaCl2, pH 7.4. Ionophore A23187 (3 μM) and [^14 C]arachidonate (to give 10 μM; 55 Ci/mol) were then added in a total assay volume of 400 μl, and incubation was continued for 2 min at 37° C. Blank assays were performed using sonicated cells with 0.1 mM 3-amino-1-m-trifluoromethylphenyl pyrazol-2-ine, an inhibitor of cyclooxygenase and lipoxygenase pathways. After incubation, reaction mixtures were acidified with 20 μl of 2N HCl and extracted with 4 ml diethyl ether. Ether extracts were dried under nitrogen, resuspended in ethyl acetate, and chromatographed on Whatman LK5D silica gel G plates, using ethyl acetate/isooctane/acetic acid/water (9/5/2/10; vols; top layer after 5 min shaking). Thin layer plates were exposed to Kodak SB-5 X-ray film to produce autoradiogran. [^14 C]DPM in products were obtained by scraping appropriate regions of TLC plates and counting in a scintillation spectrometer. Effects on the 5-lipoxygenase pathway were estimated by counting 5-HETE and 5,12-diHETE (LTB4). Cyclooxygenase and thromboxane synthetase inhibition were estimated by counting thromboxane B2 and prostaglandin E2 or F2 α. Selective thromboxane inhibitors will decrease thromboxane B2 and increase PGE2 and PGF2 α. Cyclooxygenase inhibitors will inhibit the formation of all three products.

[2] = target: T2, lyso-PAF: acetyl-CoA acetyltransferase (Rattus norvegicus, UniProt P0C1Q3); assay: Lyso-PAF: Acetyl-CoA Acetyltransferase [Synthesis of Platelet-Activating Factor (PAF)] in a lysate of rat pleural neutrophils; assay type: biochemical, rat (male Harlan Sprague-Dawley); details: lysate of activated rat pleural neutrophils, pH 6.9, 37° C., 10 min; read-out: Enzymes IC50 PAF
T2 construct: measured in a lysate of rat pleural neutrophils; endogenous in cells
T2 sequence (P0C1Q3 1-544): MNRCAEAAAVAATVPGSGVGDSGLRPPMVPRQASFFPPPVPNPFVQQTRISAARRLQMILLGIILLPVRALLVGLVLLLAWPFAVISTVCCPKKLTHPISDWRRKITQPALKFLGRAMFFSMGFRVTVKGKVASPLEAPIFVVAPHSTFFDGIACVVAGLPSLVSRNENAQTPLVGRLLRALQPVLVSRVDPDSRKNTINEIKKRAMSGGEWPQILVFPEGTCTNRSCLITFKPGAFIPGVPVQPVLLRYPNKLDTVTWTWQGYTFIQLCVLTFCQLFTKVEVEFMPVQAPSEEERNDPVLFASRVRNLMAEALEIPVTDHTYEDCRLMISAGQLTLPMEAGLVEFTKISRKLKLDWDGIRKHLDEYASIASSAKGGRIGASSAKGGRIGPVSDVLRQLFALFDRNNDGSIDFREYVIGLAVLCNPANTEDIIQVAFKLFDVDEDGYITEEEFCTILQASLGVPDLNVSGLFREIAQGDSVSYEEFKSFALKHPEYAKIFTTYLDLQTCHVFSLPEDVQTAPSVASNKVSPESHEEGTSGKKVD
Description: as §1
B) Lyso-PAF: Acetyl-CoA Acetyltransferase [Synthesis of Platelet-ActivatingFactor (PAF)]
Synthesis of PAF (platelet-activating factor) was measured in a lysate of rat pleural neutrophils, as described by White and Faison, Prostaglandins,1988; 35: p939-44. Pleural exudate cells, harvested from male Harlan Sprague-Dawley rats (150±20 g) 3 hr after injection of 0.5 mg carrageenan, were centrifuged at 200 g for 10 min at 4° C., washed, and resuspended at approximately 17 million cells/mi in a buffer consisting of 50 mM potassium phosphate, 144 mM NaCl, 6 mM KCl, 5 mM glucose, 1 mM MgCl2, 1.3 mM CaCl2, pH 7.4. Resuspended cells were incubated with calcium ionophore A23187 (1 μM) for 5 min at 37° C. to activate the acetyltransferase and then centrifuged at 755 g for 2 min at 4° C. Pellets were resuspended in cold distilled water and sonicated in a 50 Hz ultrasonic bath. Portions (250 μl) of the resulting lysate were mixed with buffer, test compound, and substrates to give 36 mM Tris-Cl, pH 6.9, 12 μM lyso-PAF, and 2.3 μM [^14 C]acetyl-CoA (0.06 μCi) in a total volume of 500 μl. Blank assays contained nonactivated neutrophils and no added lyso-PAF. The compound being tested was added prior to substrates. After incubation at 37° C. for 10 min. 0.68 ml of 2N HCl and 2.53 ml of 1:1 chloroform/methanol were added to each tube to extract labeled PAF. Each tightly-covered tube was briefly sonicated in a Branson 50 Hz bath, vortexed for 20 sec, and centrifuged at 160 g for 5 min to separate solvent phases. A 0.90 ml aliquot of the lower (organic)phase was pipetted into a glass scintillation vial, dried under nitrogen using an N-EVAP apparatus (Organomation Associates), and counted using scintillation techniques.

[3] = tested on: arachidonate cyclooxygenase; assay: Arachidonate metabolism: cyclooxygenase inhibition in rat pleural exudate cells; assay type: cell-based, rat (Harlan Sprague-Dawley male); details: ionophore A23187, 10 μM arachidonate, 37° C., read-out: Enzymes IC50 CO
Description: as §1, §2, §3

[4] = tested on: antigen-induced airway eosinophilia; assay: Inhibition of antigen-induced airway eosinophilia in the guinea pig; assay type: in vivo, guinea pig (male Hartley); details: 24 h after antigen challenge
Description: 2) Compounds of the invention were assayed for inhibition of Antigen-Induced airway eosinophilia as follows:
Male Hartley guinea pigs [Crl:(HA)Br, Charles River] weighing 200-300 g were sensitized to ovalbumin (OA) by intraperitioneal (i.p.) injections (in 1 ml 0.9% saline) of 20 mg followed by 1 mg 2 or 3 days later. After four to twelve weeks, the animals were treated with the antihistamine, pyrilamine (1 mg/kg i.p), 1 hour prior to exposure (17.8 l chamber) and for 10 min to an aerosol of OA (0.5% w/v solution in 0.9% sterile saline) generated from a jet nebulizer (Devilbiss Model 40; flow rate=8.51/min). […] Twenty-four hours after antigen challenge, each animal was anesthetized with sodium pentobarbital (55-75 mg/kg i.p.), the trachea cannulated and the lungs lavaged with 4×10 ml aliquots of Hanks' Balanced Salt Solution warmed to 37° C. The aliquots were pooled in 40 ml polycarbonate centrifuge tubes, centrifuged (200 g for 10 min at 4° C.) and the cell pellet resuspended in HEPES buffered solution (2 ml). Fifty μl of the suspension were added to 10 ml of Isoton Diluent (Fisher Scientific) containing three drops of lysing agent and the cells counted with a Coulter Counter (Model ZB1). Four μl of the cell suspension were spread on a 3×1 inch glass microscope slide, allowed to dry and the cells stained with DIFF-QUIK™ (Fisher Scientific). Two slides were prepared for each animal. Differential cell counts were made (100× magnification) from a minimum of four fields on 100 cells per slide (total cells counted per animal=200), using standard morphological criteria to classic cells into eosinophils, neutrophils, lymphocytes and macrophages. The activity of the test compound was calculated by comparing the mean proportions of eosinophils in the lavage fluid of compound-treated animals with controls (vehicle-treated animals) and expressing as percent inhibition.

[5] = tested on: C. parvum/LPS septic shock in mice; assay: In vivo Septic Shock model C. parvum/LPS Shock; design: species or system mouse (male CD-1); details: for % Survival After 48 hr / Alive/Total at 3 hr / Alive/Total at 48 hr: schedule -2,0 hr
Description: 3) In vivo Septic Shock model C. parvum/LPS Shock
Male CD-1 mice, 25-30 g (Charles River: Raleigh, N.C.), are injected intravenously (i.v.) with 100 μg killed C. parvum (Coparvax; Burroughs Wellcome, RTP, NC). Nine or ten days later the mice are injected i.v. with 20 μg E. coli 026:B6 lipopolysaccharide (LPS; Difco Labs, Detroit, Mich.) in the presence of the analgesic butorphanol (150 μg per mouse). (E)-4-(1,3-bis(cyclohexylmethyl)-1, 2, 3, 6-tetrahydro-2, 6dioxo-9H-purin-8-yl)cinnamic acid was dissolved in ENCAPSIN (hydroxypropyl-β-cyclodextrin) for i.v. dosing before, at the same time as, and after the endotoxin. Control (untreated) animals go into shock within the first 90 min following LPS administration, and approximately 50% die within 3-5 hr. Mice are monitored for the first 7 hr and at 24 and 48 hr for survival.
(E)-4-(1,3-bis(cyclohexylmethyl)-1, 2, 3, 6-tetrahydro-2, 6-dioxo-9H-purin-8-yl) cinnamic acid was administered at 0.001 to 80 mg/kg i.v. in the Septic Shock model described above.

- IC50 [1]: 1.5 µM
- IC50 [2]: 12 µM
- IC50 [3]: 4 µM
Compound: O=C(O)/C=C/c1ccc(-c2nc3c(=O)n(CC4CCCCCC4)c(=O)n(CC4CCCCCC4)c3[nH]2)cc1 [Example 7, (E)-4-[1,3 Bis(cycloheptylmethyl)-1,2,3,6-tetrahydro-2,6-dioxo-9H-purin-8-yl]cinnamicAcid]
- Inhibition of Airway Eosinophilia (% inhibition) ([4]; dose 6.8 mg/kg ip): 50%

Compound: O=C(O)/C=C/c1ccc(-c2nc3c(=O)n(CC4CCCCC4)c(=O)n(CC4CCCCC4)c3[nH]2)cc1 [Example 1, (E)-4-[1,3 Bis(cyclohexylmethyl)-1,2,3,6-tetrahydro-2,6-dioxo-9H-purin-8-yl]cinnamic Acid]
- IC50 [1]: 0.3 µM
- % Survival After 48 hr ([5]; 0.001 mg/kg i.v.): 13%
- Alive/Total at 3 hr ([5]; 0.001 mg/kg i.v.): 6/8
- Alive/Total at 48 hr ([5]; 0.001 mg/kg i.v.): 1/8
- % Survival After 48 hr ([5]; 0.01 mg/kg i.v.): 13%
- Alive/Total at 3 hr ([5]; 0.01 mg/kg i.v.): 7/8
- Alive/Total at 48 hr ([5]; 0.01 mg/kg i.v.): 1/8
- % Survival After 48 hr ([5]; 0.1 mg/kg i.v.): 50%
- Alive/Total at 3 hr ([5]; 0.1 mg/kg i.v.): 6/8
- Alive/Total at 48 hr ([5]; 0.1 mg/kg i.v.): 4/8
- % Survival After 48 hr ([5]; 1.0 mg/kg i.v.): 88%
- Alive/Total at 3 hr ([5]; 1.0 mg/kg i.v.): 6/8
- Alive/Total at 48 hr ([5]; 1.0 mg/kg i.v.): 7/8
- protection (decreasing mortality) ([5]; 0.001 to 80 mg/kg i.v., administered 2 hr before and at the time of LPS): greater than 50%
- % Survival After 48 hr ([5]; 5.0 mg/kg i.v.): 75%
- Alive/Total at 3 hr ([5]; 5.0 mg/kg i.v.): 7/8
- Alive/Total at 48 hr ([5]; 5.0 mg/kg i.v.): 6/8
- % Survival After 48 hr ([5]; 10 mg/kg i.v.): 75%
- Alive/Total at 3 hr ([5]; 10 mg/kg i.v.): 8/8
- Alive/Total at 48 hr ([5]; 10 mg/kg i.v.): 6/8
- % Survival After 48 hr ([5]; 20 mg/kg i.v.): 75%
- Alive/Total at 3 hr ([5]; 20 mg/kg i.v.): 8/8
- Alive/Total at 48 hr ([5]; 20 mg/kg i.v.): 6/8
- % Survival After 48 hr ([5]; 40 mg/kg i.v.): 75%
- Alive/Total at 3 hr ([5]; 40 mg/kg i.v.): 7/8
- Alive/Total at 48 hr ([5]; 40 mg/kg i.v.): 6/8
- % Survival After 48 hr ([5]; 60 mg/kg i.v.): 75%
- Alive/Total at 3 hr ([5]; 60 mg/kg i.v.): 7/8
- Alive/Total at 48 hr ([5]; 60 mg/kg i.v.): 6/8
- % Survival After 48 hr ([5]; 80 mg/kg i.v.): 63%
- Alive/Total at 3 hr ([5]; 80 mg/kg i.v.): 7/8
- Alive/Total at 48 hr ([5]; 80 mg/kg i.v.): 5/8
- IC50 [2]: 2.5 µM
- IC50 [3]: 0.1 µM
- Inhibition of Airway Eosinophilia (% inhibition) ([4]; dose 5 mg/kg ip): 50%

- IC50 [1]: 6 µM
- IC50 [2]: 15 µM
- IC50 [3]: 5 µM
Compound: O=C(O)/C=C/c1ccc(-c2nc3c(=O)n(CC4CCCC4)c(=O)n(CC4CCCC4)c3[nH]2)cc1 [Example 4, (E)-4-[1,3 Bis(cyclopentylmethyl)-1,2,3,6-tetrahydro-2,6-dioxo-9H-purin-8-yl]cinnamicAcid]
- Inhibition of Airway Eosinophilia (% inhibition) ([4]; dose 10 mg/kg ip): 46%
